According to patent publication US7968697B2, “Hepatitis C virus non-structural NS3/4A fusion gene” (ChronTech Pharma AB, priority 2005, dated 2011):
Several values for one entry are separate records, joined by “and”; a condition that tells them apart may be missing. Identical values can stand only once.

Assays:
HBsAg = test: EIA antibody titer to HBsAg after Engerix vaccine with or without ribavirin; type: in vivo, mice; conditions: 1 mg ribavirin mixed with 2 μg Engerix i.p., booster week four, bled week six
Source text: (Engerix, SKB). […] A booster containing the same mixture was given on week four and all mice were bled on week six.

CD4+ T cell = test: In vitro recall assay, lymph node CD4+ T cell proliferation ([3H] thymidine); type: cell-based, mice; conditions: 100 μg rNS3 mixed with 1 mg ribavirin s.c.; ten days post-immunization; 96 h of culture
Protocol: This assay can be used with any ribavirin derivative or combinations of ribavirin derivatives to determine the extent that a particular vaccine formulation modulates a cellular immune response. […] The mice were sacrificed ten days post-immunization and their lymph nodes were harvested and drained. In vitro recall assays were then performed. (See e.g., Hultgren et al., J Gen Virol. 79:2381-91 (1998) and Hultgren et al., Clin. Diagn. Lab. Immunol. 4:630-632 (1997)). The amount of CD4^+ T cell proliferation was determined at 96 h of culture by the incorporation of [^3H] thymidine.

rNS3 = test: EIA antibody titre to rNS3 after immunization with rNS3 with or without ribavirin; type: in vivo, Balb/c mice; conditions: for Group mean titre (mean ± SD) to rNS3, Week 4 / Group mean titre (mean ± SD) to rNS3, Week 6 / Group mean titre (mean ± SD) to rNS3, Week 8 / Antibody titre to rNS3 at Week 4 / Antibody titre to rNS3 at Week 6 / Antibody titre to rNS3 at Week 8: i.p.; for Endpoint titre of rNS3 IgG at Week 1 / Endpoint titre of rNS3 IgG at Week 2 / Endpoint titre of rNS3 IgG at Week 3 / Antibody titre to rNS3 at Week 4 / Antibody titre to rNS3 at Week 6 / Antibody titre to rNS3 at Week 8: individual mouse
Protocol: In a first set of experiments, groups of three to five Balb/c mice (BK Universal, Uppsala, Sweden) were immunized i.p or s.c. (e.g., at the base of the tail) with 10 μg or 100 μg of recombinant hepatitis C virus non-structural 3 (rNS3) protein. […] Mice were injected with a total volume of 100 μl per injection.
At two and four weeks following i.p. immunization, all mice were bled by retro-orbital sampling. Serum samples were collected and analyzed for the presence of antibodies to rNS3. To determine the antibody titer, an enzyme immunoassay (EIA) was performed. (See e.g., Hultgren et al., J Gen Virol. 79:2381-91 (1998) and Hultgren et al., Clin. Diagn. Lab. Immunol. 4:630-632 (1997)). The antibody levels were recorded as the highest serum dilution giving an optical density at 405 nm more than twice that of non-immunized mice.
At four, six and eight weeks the mice were bled and serum was separated and frozen. After completion of the study, sera were tested for the levels of antibodies to recombinant NS3, as described above. Mean antibody levels to rNS3 were compared between the groups using Student's t-test (parametric analysis) or Mann-Whitney (non-parametric analysis) and the software package StatView 4.5 (Abacus Concepts, Berkely, Calif.). […] The values given represent end point titres to recombinant rNS3.
The levels of antibody to the antigen were then determined by EIA.
A second set of experiments was also performed. […] The mice were bled at week six and rNS3-specific IgG levels were determined by EIA as described previously.

NS3 = test: NS3-specific IgG subclass EIA after rNS3 with or without ribavirin; type: in vivo, mice; conditions: 0.1 or 1.0 mg ribavirin with 10 μg rNS3 i.p. at weeks 0 and 4; bled at week six
Protocol: The mice were bled at week six and NS3-specific IgG subclasses were determined by EIA as described previously.

[1] = tested on: NS3/4A-expressing EL-4 cells; test: In vivo challenge with NS3/4A-expressing EL-4 lymphoma cells, prophylactic and therapeutic; conditions: immunized only once; C57BL/6 mice
Protocol: To confirm that inhibition of tumor growth using the NS3/4A-expressing EL-4 cell line is fully dependent on an NS3/4A-specific immune response a control experiment was performed. Groups of ten C57BL/6 mice were either left nonimmunized, or immunized twice with the coNS3/4A plasmid. Two weeks after the last immunization the mice were challenged with an s.c. injection of 10^6 native EL-4 or NS3/4A-expressing EL-4 cells (NS3/4A-EL-4). An NS3/4A-specific immune response was required for protection, since only the immunized mice were protected against growth of the NS3/4A-EL-4 cell line (FIG. 13). Thus, this H-2^b-restricted model behaves similarly to the SP2/0H-2^d restricted model.
The tumor challenge model was then used to evaluate how effective the different immunogens were in priming a protective immunity against growth of NS3/4A-EL-4 tumor cells in vivo. […]
In vivo challenge of immunized mice with the NS3/4A-expressing SP2/0 myeloma or EL-4 lymphoma cell line was performed according to the method described by Encke et al., supra. […] The kinetics of the tumor growth was determined by measuring the tumor size through the skin at days six to 20. […]
To test the therapeutic effect of the vaccines groups of mice were inoculated with the tumor cells as described above. […] The tumor growth was monitored from day 6 to day 20.

[2] = 0.1 mg ribavirin mixed with 20 μg rNS3
[3] = 1.0 mg ribavirin mixed with 20 μg rNS3
[4] = 10.0 mg ribavirin mixed with 20 μg rNS3
[5] = 10 mg ribavirin with 10 μg rNS3
[6] = 10 mg ribavirin with 50 μg rNS3

NC(=O)c1ncn([C@@H]2O[C@H](CO)[C@@H](O)[C@H]2O)n1 [ribavirin, 1-β-D-ribofuranosyl-1,2,4-triazole-3-carboxamide]
effect on the antibody response to HBsAg vaccine (HBsAg): enhanced the response | T cell proliferative response compared with 100 μg rNS3 in PBS (CD4+ T cell): much greater T cell proliferative response | Mean endpoint titre of rNS3 IgG at Week 1 (rNS3; [2]): 1110 ± 1484 | Mean endpoint titre of rNS3 IgG at Week 2 (rNS3; [2]): 5060 ± 6921 | antibody titer compared with formulations composed of only rNS3 (rNS3; 1 mg of ribavirin and either 10 μg or 100 μg of rNS3, two weeks post-immunization): significantly greater antibody titer | Mean endpoint titre of rNS3 IgG at Week 1 (rNS3; [3]): 360 | Mean endpoint titre of rNS3 IgG at Week 3 (rNS3; [3]): 5760 ± 6235 | Group mean titre (mean ± SD) to rNS3, Week 4 (rNS3; 1 mg ribavirin with 10 μg rNS3): 252 ± 107 | Group mean titre (mean ± SD) to rNS3, Week 6 (rNS3; 1 mg ribavirin with 10 μg rNS3): 28071 ± 16195 | Group mean titre (mean ± SD) to rNS3, Week 8 (rNS3; 1 mg ribavirin with 10 μg rNS3): 36642 ± 67565 | Group mean titre (mean ± SD) to rNS3, Week 4 (rNS3; 1 mg ribavirin with 50 μg rNS3): 150 ± 124 | Group mean titre (mean ± SD) to rNS3, Week 6 (rNS3; 1 mg ribavirin with 50 μg rNS3): 52500 ± 55549 | Group mean titre (mean ± SD) to rNS3, Week 8 (rNS3; 1 mg ribavirin with 50 μg rNS3): 37500 ± 62105 | Group mean titre (mean ± SD) to rNS3, Week 4 (rNS3; 3 mg ribavirin with 10 μg rNS3): 180 ± 128 | Group mean titre (mean ± SD) to rNS3, Week 6 (rNS3; 3 mg ribavirin with 10 μg rNS3): 30000 ± 13887 | Group mean titre (mean ± SD) to rNS3, Week 8 (rNS3; 3 mg ribavirin with 10 μg rNS3): 22500 ± 34637 | Group mean titre (mean ± SD) to rNS3, Week 4 (rNS3; 3 mg ribavirin with 50 μg rNS3): 387 ± 513 | Group mean titre (mean ± SD) to rNS3, Week 6 (rNS3; 3 mg ribavirin with 50 μg rNS3): 30000 ± 13887 | Mean endpoint titre of rNS3 IgG at Week 1 (rNS3; [4]): 360 | Mean endpoint titre of rNS3 IgG at Week 2 (rNS3; [4]): 5760 ± 6235 | Mean endpoint titre of rNS3 IgG at Week 3 (rNS3; [4]): 30960 ± 40888 | Group mean titre (mean ± SD) to rNS3, Week 4 (rNS3; [5]): 220 ± 139 | Group mean titre (mean ± SD) to rNS3, Week 4 (rNS3; [6]): 140 ± 124 | Group mean titre (mean ± SD) to rNS3, Week 6 (rNS3; [6]): 10929 ± 11928 | Group mean titre (mean ± SD) to rNS3, Week 8 (rNS3; [6]): 15214 ± 15380 | adjuvant effect on antibody levels, kinetics (rNS3; higher doses (1-10 mg) of ribavirin with 20 μg rNS3): enhance antibody levels at week three | Endpoint titre of rNS3 IgG at Week 1 (rNS3; [2]): 2160 and 60 and <60 | Endpoint titre of rNS3 IgG at Week 2 (rNS3; [2]): 12960 and 60 and 2160 | Endpoint titre of rNS3 IgG at Week 3 (rNS3; [2]): 2160 (2×) and 60 | Endpoint titre of rNS3 IgG at Week 1 (rNS3; [3]): <60 (2×) and 360 | Endpoint titre of rNS3 IgG at Week 2 (rNS3; [3]): 60 and 2160 (2×) | Endpoint titre of rNS3 IgG at Week 3 (rNS3; [3]): 12960 and 2160 (2×) | Antibody titre to rNS3 at Week 4 (rNS3; 1 mg ribavirin with 10 μg rNS3): 300 (4×) and <60 (3×) and 60 | Antibody titre to rNS3 at Week 6 (rNS3; 1 mg ribavirin with 10 μg rNS3): 37500 (5×) and 1500 and 7500 | Antibody titre to rNS3 at Week 8 (rNS3; 1 mg ribavirin with 10 μg rNS3): 37500 and 1500 and 187500 and 7500 (4×) | Antibody titre to rNS3 at Week 4 (rNS3; 1 mg ribavirin with 50 μg rNS3): 60 (5×) and 300 (3×) | Antibody titre to rNS3 at Week 6 (rNS3; 1 mg ribavirin with 50 μg rNS3): 7500 and 37500 (6×) and 187500 | Antibody titre to rNS3 at Week 8 (rNS3; 1 mg ribavirin with 50 μg rNS3): 7500 (5×) and 187500 and 37500 (2×) | Antibody titre to rNS3 at Week 4 (rNS3; 3 mg ribavirin with 10 μg rNS3): 60 (4×) and 300 (4×) | Antibody titre to rNS3 at Week 6 (rNS3; 3 mg ribavirin with 10 μg rNS3): 37500 (6×) and 7500 (2×) | Antibody titre to rNS3 at Week 8 (rNS3; 3 mg ribavirin with 10 μg rNS3): 7500 (4×) and 37500 (4×) | Antibody titre to rNS3 at Week 4 (rNS3; 3 mg ribavirin with 50 μg rNS3): 60 (3×) and 300 (3×) and 1500 | Antibody titre to rNS3 at Week 6 (rNS3; 3 mg ribavirin with 50 μg rNS3): 37500 (6×) and 7500 (2×) | Antibody titre to rNS3 at Week 8 (rNS3; 3 mg ribavirin with 50 μg rNS3): 7500 (5×) and 37500 (3×) | Endpoint titre of rNS3 IgG at Week 1 (rNS3; [4]): 360 (2×) and <60 | Endpoint titre of rNS3 IgG at Week 2 (rNS3; [4]): 12960 and 2160 (2×) | Endpoint titre of rNS3 IgG at Week 3 (rNS3; [4]): 77760 and 12960 and 2160 | Antibody titre to rNS3 at Week 4 (rNS3; [5]): 300 (2×) and <60 (5×) and 60 | Antibody titre to rNS3 at Week 6 (rNS3; [5]): 37500 (3×) and 300 (2×) and 7500 (2×) | Antibody titre to rNS3 at Week 8 (rNS3; [5]): 37500 (3×) and 300 (2×) and 7500 (2×) | Antibody titre to rNS3 at Week 4 (rNS3; [6]): 300 (2×) and 60 (5×) | Antibody titre to rNS3 at Week 6 (rNS3; [6]): 7500 (5×) and 37500 (2×) and 1500 | Antibody titre to rNS3 at Week 8 (rNS3; [6]): 7500 (5×) and 37500 (2×) and 1500 | adjuvant effect on antibody levels, kinetics (rNS3; low doses (<1 mg) of ribavirin with 20 μg rNS3): enhance antibody levels at week one but not at week three | effect on the NS3-specific IgG subclass response (NS3): does not change the IgG subclass response

GAVQNEVTL (Artificial Peptide, NS3/4A H-2D Binding Peptide) [NS3-derived CTL peptide, ID; NO.: 37]
protection against growth of NS3/4A-EL-4 tumors [1]: not protected
